Test results: ChEMBL document CHEMBL3421550, “Diphenylpyrazoles as replication protein a inhibitors” (ACS Med Chem Lett, 2015)

What was measured:
[1] = biological target: T1, Replication protein A 70 kDa DNA-binding subunit (Homo sapiens, UniProt P27694)
Description: Binding affinity to RPA70N protein (unknown origin) incubated for 1 hr using FITC-ATRIP/FITC-ATRIP2 peptide probe by fluorescence polarization anisotropy assay

[2] = biological target: T1, Replication protein A 70 kDa DNA-binding subunit; experiment: Binding affinity to RPA70N protein (unknown origin) by HSQC NMR-based titration method
[3] = biological target: T1, Replication protein A 70 kDa DNA-binding subunit; details: at 500 µM
Description: Displacement of FITC-ATRIP/FITC-ATRIP2 peptide probe from RPA70N protein (unknown origin) at 500 uM incubated for 1 hr by fluorescence polarization anisotropy assay

[4] = Intrinsic permeability in human Caco2 cells; format: ADME, cell-based; details: Caco-2, read-out: permeability

T1 sequence (P27694 whole entry): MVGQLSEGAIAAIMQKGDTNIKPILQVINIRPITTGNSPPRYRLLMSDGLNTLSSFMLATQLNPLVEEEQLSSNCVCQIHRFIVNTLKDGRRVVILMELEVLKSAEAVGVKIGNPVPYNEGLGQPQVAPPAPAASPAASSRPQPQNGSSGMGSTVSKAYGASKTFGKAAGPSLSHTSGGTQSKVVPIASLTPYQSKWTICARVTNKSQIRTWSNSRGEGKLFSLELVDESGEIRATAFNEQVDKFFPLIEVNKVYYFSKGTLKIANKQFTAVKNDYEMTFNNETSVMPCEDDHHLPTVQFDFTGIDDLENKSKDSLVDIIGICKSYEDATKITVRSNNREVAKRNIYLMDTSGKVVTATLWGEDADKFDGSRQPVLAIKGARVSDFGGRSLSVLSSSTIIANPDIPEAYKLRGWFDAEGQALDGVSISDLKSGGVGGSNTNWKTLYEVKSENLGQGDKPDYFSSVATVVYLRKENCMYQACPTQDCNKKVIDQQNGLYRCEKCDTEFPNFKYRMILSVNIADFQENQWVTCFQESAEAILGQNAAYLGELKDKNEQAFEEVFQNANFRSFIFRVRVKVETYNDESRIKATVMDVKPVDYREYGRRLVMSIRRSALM

Row | SMILES | Kd [1] | also measured
1 | NCc1ccc(-c2cc(C(=O)O)nn2-c2ccc(Cl)c(Cl)c2)cc1 | > 500 µM | –
2 | O=C(O)c1cc(Cc2ccc(O)cc2)n(-c2ccc(Cl)c(Cl)c2)n1 | > 500 µM | –
3 | O=C(O)c1cc(-c2cccc(CNCc3ccc(-c4ccc(C(=O)O)o4)cc3)c2)n(-c2ccc(Cl)c(Cl)c2)n1 | 57 µM | –
4 | O=C(O)c1cccc(-c2cc(C(=O)O)nn2-c2ccc(Cl)c(Cl)c2)c1 | 129 µM | –
5 | O=C(O)c1cc(-c2ccccc2)n(-c2ccccc2)n1 | – | Kd [2]: 1150 µM
6 | N#Cc1ccc(-c2cc(C(=O)O)nn2-c2ccc(Cl)c(Cl)c2)cc1 | 310 µM | –
7 | COc1ccc(-c2cc(C(=O)O)nn2-c2ccc(C)cc2)cc1 | > 500 µM | inhibition [3]: 15%
8 | Cc1ccc(-c2cc(C(=O)O)nn2-c2ccc(Cl)c(Cl)c2)cc1 | 72 µM | –
9 | O=C(NCc1ccc(-c2cc(C(=O)O)nn2-c2ccc(Cl)c(Cl)c2)cc1)c1ccccc1 | 90 µM | –
10 | COc1ccc(-c2cc(C(=O)O)nn2-c2ccc(Br)cc2)cc1 | > 500 µM | inhibition [3]: 24%
11 | O=C(O)c1cc(-c2ccc(CNS(=O)(=O)c3ccc(OC(F)(F)F)cc3)cc2)n(-c2ccc(Cl)c(Cl)c2)n1 | 56 µM | –
12 | Nc1ccc(-c2cc(C(=O)O)nn2-c2ccc(Cl)c(Cl)c2)cc1 | 227 µM | –
13 | COc1ccc(-c2cc(C(=O)O)nn2-c2cccc(Cl)c2)cc1 | > 500 µM | inhibition [3]: 35%
14 | COc1ccc(-c2cc(C(=O)O)nn2-c2cccc(C)c2)cc1 | > 500 µM | inhibition [3]: 20%
15 | O=C(O)c1ccc(-c2cc(C(=O)O)nn2-c2ccc(Cl)c(Cl)c2)cc1 | 59 µM | –
16 | COc1ccc(-c2cc(C(=O)O)nn2C2CCCCC2)cc1 | > 500 µM | inhibition [3]: 9%
17 | O=C(NCc1ccccc1)c1ccc(-c2cc(C(=O)O)nn2-c2ccc(Cl)c(Cl)c2)cc1 | 83 µM | –
18 | Cc1cccc(-n2nc(C(=O)O)cc2-c2ccccc2)c1 | > 500 µM | Kd [2]: 580 µM
19 | O=C(O)c1cc(-c2ccc(CNS(=O)(=O)c3ccccc3)cc2)n(-c2ccc(Cl)c(Cl)c2)n1 | 70 µM | –
20 | O=C(O)c1cc(-c2ccc(O)cc2)n(-c2ccc(Cl)c(Cl)c2)n1 | 104 µM | –
21 | COc1ccc(C(=O)NCc2ccc(-c3cc(C(=O)O)nn3-c3ccc(Cl)c(Cl)c3)cc2)cc1 | 72 µM | –
22 | COc1ccc(-c2cc(C(=O)O)nn2-c2ccc(Cl)cc2)cc1 | > 500 µM | inhibition [3]: 19%
23 | COc1ccc(-n2nc(C(=O)O)cc2-c2ccccc2)cc1 | > 500 µM | Kd [2]: 895 µM; inhibition [3]: 18%
24 | O=C(O)c1cc(-c2ccco2)n(-c2ccc(Cl)c(Cl)c2)n1 | > 500 µM | –
25 | Cc1cccc(-c2cc(C(=O)O)nn2-c2ccc(Cl)c(Cl)c2)c1 | 90 µM | –
26 | O=C(O)c1cc(-c2ccccc2)n(-c2ccc(Cl)c(Cl)c2)n1 | 123 µM | –
27 | O=C(O)c1cc(-c2ccc(Cl)cc2)n(-c2ccc(Cl)c(Cl)c2)n1 | 67 µM | Kd [2]: 54 µM
28 | COc1ccc(-c2cc(C(=O)O)nn2-c2ccc(Cl)c(Cl)c2)cc1 | 79 µM | –
29 | COc1ccc(-c2cc(C(=O)O)nn2-c2cccc(Br)c2)cc1 | 140 µM | –

Continued by falling Kd [1], values first:

Row | Kd [1] | SMILES | also measured
30 | 45 µM | COc1ccc(CNC(=O)c2ccc(-c3cc(C(=O)O)nn3-c3ccc(Cl)c(Cl)c3)cc2)cc1 | –
31 | 35 µM | O=C(NCc1ccc(-c2cc(C(=O)O)nn2-c2ccc(Cl)c(Cl)c2)cc1)c1ccc(Br)cc1 | –
32 | 34 µM | NS(=O)(=O)c1ccc(C(=S)NCc2ccc(-c3cc(C(=O)O)nn3-c3ccc(Cl)c(Cl)c3)cc2)cc1 | –
33 | 23 µM | COc1ccc(CNC(=S)c2ccc(-c3cc(C(=O)O)nn3-c3ccc(Cl)c(Cl)c3)cc2)cc1 | –
34 | 22 µM | O=C(NCc1ccc(-c2ccc(C(=O)O)o2)cc1)c1cccc(-c2cc(C(=O)O)nn2-c2ccc(Cl)c(Cl)c2)c1 | –
35 | 18 µM | O=C(O)c1cc(-c2ccc(C(=S)NCc3ccccc3)cc2)n(-c2ccc(Cl)c(Cl)c2)n1 | –
36 | 15 µM | O=C(O)c1cc(-c2ccc(CNC(=S)c3ccc(Br)cc3)cc2)n(-c2ccc(Cl)c(Cl)c2)n1 | –
37 | 9.4 µM | O=C(NCc1ccc(-c2ccc(C(=O)O)o2)cc1Cl)c1ccc(-c2cc(C(=O)O)nn2-c2ccc(Cl)c(Cl)c2)cc1 | –
38 | 9.3 µM | O=C(O)c1cc(-c2ccc(CNC(=S)c3ccc(-c4nc(=O)o[nH]4)cc3)cc2)n(-c2ccc(Cl)c(Cl)c2)n1 | –
39 | 8.2 µM | CC(=O)N(Cc1ccc(-c2ccc(C(=O)O)o2)cc1)Cc1cccc(-c2cc(C(=O)O)nn2-c2ccc(Cl)c(Cl)c2)c1 | –
40 | 2.5 µM | O=C(O)c1cc(-c2ccc(C(=S)NCc3cccc(-c4ccc(C(=O)O)o4)c3)cc2)n(-c2ccc(Cl)c(Cl)c2)n1 | –
41 | 2.2 µM | O=C(O)c1cc(-c2ccc(CNC(=S)c3ccc(-c4nnn[nH]4)cc3)cc2)n(-c2ccc(Cl)c(Cl)c2)n1 | –
42 | 1.7 µM | O=C(O)c1ccc(-c2ccc(C(=S)NCc3ccc(-c4ccnn4-c4ccc(Cl)c(Cl)c4)cc3)c(Cl)c2)o1 | Papp [4]: 14.5 ×10⁻⁶ cm/s
43 | 1.5 µM | O=C(O)c1cc(-c2ccc(C(=S)NCc3ccc(-c4ccc(C(=O)O)o4)cc3)cc2)n(-c2ccc(Cl)c(Cl)c2)n1 | –
44 | 0.55 µM | O=C(O)c1cc(-c2ccc(CNC(=S)c3ccc(-c4ccc(C(=O)O)o4)cc3)cc2)n(-c2ccc(Cl)c(Cl)c2)n1 | –
45 | 0.54 µM | O=C(O)c1cc(-c2ccc(CN3CCc4cc(-c5ccc(C(=O)O)o5)ccc4C3=S)cc2)n(-c2ccc(Cl)c(Cl)c2)n1 | –
46 | 0.48 µM | O=C(O)c1cc(-c2ccc(C(=S)NCc3ccc(-c4ccc(C(=O)O)o4)cc3Cl)cc2)n(-c2ccc(Cl)c(Cl)c2)n1 | –
